Test results reported in US20220071970A1, “QUINUCLIDINE-3-ONE DERIVATIVES AND THEIR USE IN CANCER TREATMENT” (Aprea Therapeutics AB, priority 2018, published 2022).

Tests used:
[1] = system: SaOS-2 His273 mtp53 human osteosarcoma cell line; experiment: In vitro efficacy study using the SaOS-2 His273 protocol (CellTiter-Glo viability, 72 h); format: cell-based; conditions: SAOS-2, growth suppression, 72 hours incubation, CellTiter-Glo, read-out: SaOS-2 His273 IC50
Method: SaOS-2 His273 mtp53 is a human osteosarcoma cell line which has been genetically engineered at OnkPat CCK to express His273 mutated p53.
3000 cells/well (50 μl) were seeded into masked (black or white with clear bottom) 96-well cell culture plates using Iscove's Modified Dulbecco's Medium supplemented with 10% heat inactivated (56° C. for 60 min) fetal calf serum. The plates were then incubated for 4 hours, allowing the cells to attach. The test compounds were dissolved in DMSO or water to a concentration of 0.01 M and then further diluted to desired concentrations using the cell medium. 50 μl of freshly diluted test compound from fresh stock was added to the wells. The plates were then incubated for 72 hours.
For viability detection, CellTiter-Glo® Luminescent Cell Viability Assay (CTG) was used. CTG is a homogeneous “add-mix-measure” format method of determining the number of viable cells in culture based on quantitation of the ATP present, an indicator of metabolically active cells. The luminescence was measured using the PerkinElmer Victorx4 instrument.
The average of the signal values for the untreated cells was calculated for each plate. The % of growth suppression was calculated as:
100−((Signal sample/Signal untreated cells)×100).
The results of the SaOs-2 His273 analyses were expressed as IC50 values, i.e. concentration that suppresses growth of at least 50% of the cells. The IC50 values of various compounds according to the invention and of some comparative compounds are shown in Table 1, Table 2, Table 3 and Table 4.

[2] = system: MDA-MB-231-Luc human breast cancer cell line carrying mutant p53 (R280K); experiment: In vivo efficacy study, orthotopic MDA-MB-231-Luc breast cancer xenograft in nude mice; parameters: species or system nude mice (Hsd:AthymicNude-Foxnlnu); conditions: 42 or 125 mg/kg intraperitoneally twice daily, 3 cycles of 5 days, compared to control animals
Method: A: Luciferase luminescence from mice xenografted with MDA-MB-231-Luc breast cancer cells. B: Tumor weight at day 33 after beginning of treatment.
The compound of Example 4 was administered intraperitoneally twice daily at 42 or 125 mg/kg to nude mice (Hsd:AthymicNude-Foxnlnu) ortotopically xenografted with the human breast cancer cell line MDA-MB-231-Luc, carrying mutant p53 (R280K). To make MDA-MB-231-Luc, the cell line MDA-MB-231 was stably transfected with a synthetic gene for firefly luciferase, Luc2 (pGL4, Promega). Thereby, the tumor load may be externally monitored by luminescence measurement (radiance values; photon/second/cm^2/steradian). 5×10^6 MBA-MB-231-luc cells were injected, and eight days later the animals were stratified into treatment groups and control, 8 animals in each group, based on luminescence measurement. Treatment was started on day 11 and done in 3 cycles of 5 days each, with 2 days recovery. Tumor progression was evaluated by non-invasive in vivo imaging during the second cycle (day 18) and at the end of treatment (day 32). On day 33, the animals were sacrificed and the tumors excised and weighed.

[3] = Stability study in pH 4 buffer at 25° C.; format: physicochemical; conditions: for % Parent remaining at 48 h: LCMS, normalized to internal standard; for half-life at 0.2 mg/mL: pH 4 acetate buffer
Method: Chemical stability at low pH was investigated for selected compounds. Compounds that are highly unstable may not be suitable as drug candidates, for example due to potential difficulties in achieving and maintaining a stable and therapeutically effective formulation. For instance, compounds intended for oral administration must be chemically stable at the low pH observed in the stomach in order for this to be an acceptable route.
A pH 4 buffer was prepared by mixing 4.1 mL of 0.2 M acetic acid (aq.) with 0.9 mL of a 0.2 M sodium acetate (aq.) and then diluting to 10 mL with distilled water. The pH was determined by pH meter to 4.04.
Benzylpiperidine-4-ol was used as internal standard. A 1 mg/mL stock solution was prepared by dissolving 3.5 mg benzylpiperidine-4-ol in 3.5 mL of water. 500 μL of the stock solution were added to pH 4 buffer (5 mL) and the mixture was shaken.
A 1 mg/mL solution in acetonitrile was prepared for each test compound. Two drops of water were added to ca. 1 mL of acetonitrile in order to completely dissolve Example 2.
To 400 μL of pH 4 buffer with internal standard were added 100 μL of 1 mg/mL test compound solution. The solutions were stored at 25° C. and analyzed by LCMS directly and at different time points up to 48 hours. The [M+H]^+ ion for parent compound (test compound) and the internal standard (m/z 192) were extracted and integrated. The area for the parent compound was normalized to the area of the internal standard for each time point.
The half-life was calculated based on 1st order kinetics (t %=ln2/k). The rate constant (k) was obtained by plotting In[normalized peak area] against time.
Results for half-life and percent parent compound remaining at 48 h for selected examples and a comparative example are shown in Table 5.

## O=C1C2CCN(CC2)C1CNC(=O)C(F)(F)F (racemic) [Example 4, 2,2,2-trifluoro-N-((3-oxoquinuclidin-2-yl)methyl)acetamide]
[1]
  IC50: 5.6 µM
[2]; imaging day 18 and day 32
  tumor cell migration as measured by radiance of luminescence (FIG. 1A): reduced tumor cell migration compared to control animals
[2]; tumors excised day 33
  tumor weight (FIG. 1B): reduced tumor weight compared to control animals

## O=C1C2CCN(CC2)C1Cn1ccc(=O)[nH]c1=O (racemic) [Example 23, 1-((3-oxoquinuclidin-2-yl)methyl)pyrimidine-2,4(1H,3H)-dione]
[3]
  % Parent remaining at 48 h: 59%
[3]; 1st order kinetics
  half-life at 0.2 mg/mL: 67 h
[1]
  IC50: 3.2 µM

## Cc1cn(CC2C(=O)C3CCN2CC3)c(=O)[nH]c1=O (racemic) [Example 24, 5-methyl-1-((3-oxoquinuclidin-2-yl)methyl)pyrimidine-2,4(1H,3H)-dione]
[3]
  % Parent remaining at 48 h: >95%
[3]; 1st order kinetics
  half-life at 0.2 mg/mL: > 630 h
[1]
  IC50: 6.5 µM

## O=C1C2CCN(CC2)C1Cn1cc(F)c(=O)[nH]c1=O (centres unmarked) [Comparative example 3, 5-fluoro-1-((3-oxoquinuclidin-2-yl)methyl)pyrimidine-2,4(H,3H)-dione, reference compound]
[3]; 1st order kinetics
  Half-life: 15 h
[3]
  % Parent remaining at 48 h: 18%

## Cc1cn(CC2C(=O)C3CCN2CC3)c(=O)n(CC2C(=O)C3CCN2CC3)c1=O (centres unmarked) [Example 26, 5-methyl-1,3-bis((3-oxoquinuclidin-2-yl)methyl)-pyrimidine-2,4(1H,3H)-dione]
[3]
  % Parent remaining at 48 h: 73%
[3]; 1st order kinetics
  half-life at 0.2 mg/mL: 70 h
[1]
  IC50: 4 µM
